Details of data set [1]: method as in earlier work. The following applies: cited from earlier work.
Details of data set [2]: method as in PMID 11901097. As to conditions: cited from earlier work.
Data set [3] concerns liver slices. The data set is described as follows: Uptake of EZE-Ph in liver slices of control and CCl4-induced rats. The data set is classed as in vitro ADME, rat. As to conditions: 10 μM EZE-Ph, 10 min. How it is done:
Liver slices were prepared as previously described elsewhere. Rats were anesthetized and sacrificed via exsanguination from the abdominal aorta, and the livers were excised. Liver cylindrical cores of an 8 mm diameter were made before slicing. Liver slices with a thickness of 300 μm were obtained using a Krumdieck tissue slicer MD6000 (TSE systems, Chesterfield, MO) with ice-cold and carbogen-saturated Krebs–Henseleit buffer.
After 5 min of preincubation at 4 and 37 °C, the liver slices were transferred to 24-well plates containing 500 μL of buffer with 10 μM EZE-Ph for 10 min. After incubation, the liver slices were washed 3 times with ice-cold HBSS and dried on filter paper. Each liver slice was homogenized with 200 μL of purified water and the protein content was determined using a BCA protein assay kit. The concentration of EZE-Ph was determined using LC-MS/MS.

In data set [4] the target is T1, OATP1B1 (Homo sapiens, UniProt Q9Y6L6).
T1 construct: host or cells: HEK293
T1 sequence (Q9Y6L6 1-691): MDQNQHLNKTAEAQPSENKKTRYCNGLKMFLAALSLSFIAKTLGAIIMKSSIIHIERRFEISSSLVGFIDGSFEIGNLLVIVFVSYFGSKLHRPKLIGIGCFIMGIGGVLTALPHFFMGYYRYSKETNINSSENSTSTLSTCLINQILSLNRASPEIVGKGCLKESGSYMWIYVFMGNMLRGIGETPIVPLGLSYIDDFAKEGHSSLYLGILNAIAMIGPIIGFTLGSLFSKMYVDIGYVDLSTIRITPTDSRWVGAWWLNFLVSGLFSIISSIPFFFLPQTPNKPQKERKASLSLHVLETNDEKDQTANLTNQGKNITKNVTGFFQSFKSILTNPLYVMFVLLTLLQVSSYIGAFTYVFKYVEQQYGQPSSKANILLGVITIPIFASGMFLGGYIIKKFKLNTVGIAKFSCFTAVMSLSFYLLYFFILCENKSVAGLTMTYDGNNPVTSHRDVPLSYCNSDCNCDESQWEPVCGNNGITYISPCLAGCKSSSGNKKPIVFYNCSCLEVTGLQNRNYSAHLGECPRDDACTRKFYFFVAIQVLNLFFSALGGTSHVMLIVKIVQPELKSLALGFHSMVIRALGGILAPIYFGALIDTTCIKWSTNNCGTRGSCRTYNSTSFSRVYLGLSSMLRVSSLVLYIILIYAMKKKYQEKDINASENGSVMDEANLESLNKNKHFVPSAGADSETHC
The data set is described as follows: Uptake of EZE-Ph into OATP1B1-transfected HEK293 cells. The format is in vitro ADME. As to the method: (§1) The kinetic parameters and the half inhibitory concentration (IC50) were calculated using GraphPad Prism. […] The intrinsic clearance (CLint) was calculated as CLint = Vmax/Km.

Data set [5] has as its system OAT1. Description: Uptake of EZE-Ph into OAT1-transfected HEK293 cells. The data set is classed as in vitro ADME, human. The following applies: 10 μM EZE-Ph.
Protocol: (§2) Human OATP1B1-, OATP1B3-, OATP2B1-, OAT1-, OAT3-, or OCT2-transfected HEK293 cells and vector-transfected control cells (mock) were constructed at HD Biosciences Co., Ltd. (Shanghai, China). The functions of these transporters were evaluated using relevant positive substrates and inhibitors. Estradiol-17β-glucuronide (5 μM, OATP1B1 and OATP1B3), estrone 3-sulfate sodium salt (E3S, 5 μM, OATP2B1), para-aminohippuric acid (PAH, 20 μM, OAT1), furosemide (5 μM, OAT3), and 1-methyl-4-phenyl pyridinium (MPP^+, 5 μM, OCT2) were used as substrates for the transporters. […] The cells (50,000 per well) were cultured in Dulbecco’s modified Eagle’s medium (containing 10% fetal bovine serum, 1% GlutaMAX-I, 1% penicillin G/streptomycin, and 1% nonessential amino acids) on poly-D-lysine-coated 96-well plates at 37 °C in an atmosphere of 5% CO2.
(§3) The cells were rinsed three times with HBSS (37 °C) and then equilibrated in HBSS for 10 min. […] The protein content was measured using a BCA protein assay kit. The concentrations of EZE and EZE-Ph were determined using LC-MS/MS.
(§4) The rates of substrate uptake were normalized using the protein contents of cell lysates. The net uptake via transporters was calculated by subtracting the uptake in vector-transfected HEK293 cells (or uptake into hepatocytes at 4 °C) from that in transporter-transfected HEK293 cells (or uptake into hepatocytes at 37 °C).
In data set [6] the test system is OCT2. The data set is described as follows: Uptake of EZE-Ph into OCT2-transfected HEK293 cells. The data set is classed as in vitro ADME, human. The following applies: 10 μM EZE-Ph.
Protocol: as §2, §3, §4
In data set [7] the target is T2, OATP2B1 (Homo sapiens, UniProt O94956).
T2 construct: host or cells: HEK293
T2 sequence (O94956 1-709): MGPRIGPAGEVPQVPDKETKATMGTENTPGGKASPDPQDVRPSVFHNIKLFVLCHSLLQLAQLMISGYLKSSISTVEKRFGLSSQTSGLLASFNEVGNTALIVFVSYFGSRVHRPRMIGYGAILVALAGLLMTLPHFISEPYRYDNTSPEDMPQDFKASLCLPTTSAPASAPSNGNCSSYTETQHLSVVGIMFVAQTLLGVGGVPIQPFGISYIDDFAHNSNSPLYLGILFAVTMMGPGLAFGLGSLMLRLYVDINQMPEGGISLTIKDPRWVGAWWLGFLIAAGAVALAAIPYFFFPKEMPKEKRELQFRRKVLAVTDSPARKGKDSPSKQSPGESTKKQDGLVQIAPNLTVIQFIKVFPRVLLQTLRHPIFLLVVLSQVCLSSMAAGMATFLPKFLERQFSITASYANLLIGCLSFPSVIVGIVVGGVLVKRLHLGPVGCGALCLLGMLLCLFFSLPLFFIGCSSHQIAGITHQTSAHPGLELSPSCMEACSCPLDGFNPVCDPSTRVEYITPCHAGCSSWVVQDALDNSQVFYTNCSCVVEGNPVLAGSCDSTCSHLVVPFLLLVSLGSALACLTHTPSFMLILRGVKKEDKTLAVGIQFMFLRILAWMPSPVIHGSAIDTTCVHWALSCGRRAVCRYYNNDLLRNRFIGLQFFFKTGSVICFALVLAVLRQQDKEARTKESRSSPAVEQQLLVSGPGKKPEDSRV
The data set is described as follows: Uptake of EZE-Ph into OATP2B1-transfected HEK293 cells. The format is in vitro ADME. How it is done: as §1

Details of data set [8]: method as in PMID 10780982. As to conditions: intraduodenal administration of EZE; cited from earlier work.
Data set [9] concerns the target T3, OAT3 (Homo sapiens, UniProt Q8TCC7).
T3 construct: host or cells: HEK293
T3 sequence (Q8TCC7 1-542): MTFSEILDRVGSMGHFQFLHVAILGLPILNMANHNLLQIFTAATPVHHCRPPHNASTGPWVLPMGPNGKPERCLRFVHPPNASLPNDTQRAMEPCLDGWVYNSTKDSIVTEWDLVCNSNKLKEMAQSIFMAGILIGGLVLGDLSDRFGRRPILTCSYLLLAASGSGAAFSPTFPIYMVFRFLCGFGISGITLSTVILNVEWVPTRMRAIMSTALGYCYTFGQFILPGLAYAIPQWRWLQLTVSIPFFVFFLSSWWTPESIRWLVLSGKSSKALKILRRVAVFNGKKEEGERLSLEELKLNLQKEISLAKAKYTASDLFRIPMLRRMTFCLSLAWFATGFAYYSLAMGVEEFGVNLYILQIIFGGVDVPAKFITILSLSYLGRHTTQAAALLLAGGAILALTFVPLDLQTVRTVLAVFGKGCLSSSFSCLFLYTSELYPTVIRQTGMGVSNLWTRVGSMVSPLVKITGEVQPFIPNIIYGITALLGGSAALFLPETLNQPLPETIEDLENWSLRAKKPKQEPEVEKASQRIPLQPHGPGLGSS
The data set is described as follows: Uptake of EZE-Ph into OAT3-transfected HEK293 cells. The data set is classed as in vitro ADME. How it is done:
as §1

This is an account of results in publication PMC9785202, “Changes in Disposition of Ezetimibe and Its Active Metabolites Induced by Impaired Hepatic Function: The Influence of Enzyme and Transporter Activities” (Pharmaceutics, 2022).

Molecules are shown by their SMILES. Read-outs that look alike come from different tables or passages of the source. Bounds are passed on as bounds.

Take `O=C1[C@H](CC[C@H](O)c2ccc(F)cc2)[C@@H](c2ccc(O)cc2)N1c1ccc(F)cc1` [EZE, 1-(4-fluorophenyl)-3(R)-[3-(4-fluorophenyl)-3(S)-hydroxypropyl]-4(S)-(4-hydroxyphenyl)-2-azetidinone, reference compound]: the “plasma exposure, fold higher than in healthy subjects” value in [1] (mild CLD patients) is recorded as 1.4 fold; in data set [1] (moderate CLD patients), 5.8 fold; in [1] (severe CLD patients), 4.8 fold. Also, the “share of the EZE-related material in human plasma” value in [2] was 10–20%.
For `O=C(O)[C@H]1O[C@@H](Oc2ccc([C@@H]3[C@@H](CC[C@H](O)c4ccc(F)cc4)C(=O)N3c3ccc(F)cc3)cc2)[C@H](O)[C@@H](O)[C@@H]1O` [EZE-Ph, ezetimibe phenoxy β-D-glucuronide], the “EZE-Ph uptake in liver slices, 37 °C vs 4 °C” value in [3] was “significantly greater at 37 °C than 4 °C”. Further, the “EZE-Ph uptake in liver slices, control vs CCl4-induced rats” value in data set [3] is “no significant difference”. In addition, the “uptake in transporter-transfected cells relative to mock-transfected cells” value is listed as 5.3 times in data set [4] (10 μM EZE-Ph, OATP1B1 HEK293); “less than twice” in data set [5]; “less than twice” in data set [6]; 3.7 times in data set [7] (10 μM EZE-Ph, OATP2B1 HEK293); 8.9 times in data set [9] (10 μM EZE-Ph, OAT3 HEK293). For the same compound, the CLint was determined as 0.56 μL/min/mg Protein in data set [4] (OATP1B1 HEK293, CLint = Vmax/Km); 0.56 μL/min/mg Protein in data set [7] (OATP2B1 HEK293, CLint = Vmax/Km); 1.84 μL/min/mg Protein in data set [9] (OAT3 HEK293, CLint = Vmax/Km). Moreover, the “Kinetic Model” value in data set [4] (OATP1B1 HEK293, uptake time 5 min) is “Substrate inhibition”; in data set [7] (OATP2B1 HEK293, uptake time 5 min), “Michaelis–Menten”; in data set [9] (OAT3 HEK293, uptake time 5 min), “Allosteric sigmoidal”. Also, the “EZE-Ph generated in the intestine” value in data set [8] is above 95%. Moreover, the “h (Hill slope)” value in [9] (OAT3 HEK293, allosteric sigmoidal model) is reported as 1.19.
